Results: patent US10552557B2, “Freshening compositions and devices comprising same” (The Procter & Gamble Company, priority 2014, dated 2020)

Experiment: Blocker Index (BI), expert graders, isovaleric acid malodorous swatch treated with test material
Excerpt: Blocker materials suitable for use in consumer products of the present invention are chosen for their ability to decrease malodor, while not interfering with perception of a fragrance. Material selection is done by assigning two indices to a test sample material from two reference scales in order to rank odor strengths. The two reference scales are the Fragrance Fidelity Index (FFI) scale and the Blocker Index (BI) scale. The FFI ranks the ability of the test sample material to impart a perceivable odor which could cause interference when combined with another fragrance and the BI ranks the ability of the test sample material to reduce malodor perception. The two methods for assigning the indices to a test sample on the FFI and the BI reference scales are given below.
The first step in the method for assigning a BI to a test sample material on the BI reference scale is to create the BI reference swatches. […] Fabric swatches for this test are white knit polycotton (4 inch×4 inch) swatches from EMC ordered as PC 50/50. The supplier is instructed to strip the swatches first, stripping involves washing twice with a fragrance-free detergent and rinsing three times.
The BI scale contains one clean swatch with no malodor applied. […] These solutions are pipetted to the middle of the swatches. […] After drying for 30 minutes in a vented hood, the swatches are wrapped in aluminum foil to prevent odor contamination to the treated swatch. A clean untreated swatch is also included as the lowest anchor point of reference for malodor strength on the BI scale. The BI reference scale swatches should be used within 0.5 to 12 hours and discarded after 12 hours. The swatches are used as scale anchor points when graders evaluate a test sample(s) and are assigned a Blocker Index (BI) as show in Table 12.
The perfumer/expert grader is asked to rank order swatches according to a scale between 0 and 3.
The reference swatches represent the 0, 1, 2, and 3 BIs on the BI reference scale, Table 12. The expert grader should familiarizes him/herself with the strength of the odor on the BI reference swatches by sniffing each one starting at 0 (the lowest odor strength) and ending at 3 (the highest odor strength). This should be done prior to evaluating the swatch treated with the test material.
To evaluate the BI, the test material is applied to a malodorous swatch to determine how well the test material blocks the malodor. […] After drying the malodorous swatch a known concentration of test material solution, between 1 ppm and 100 ppm is pipetted onto the malodorous swatch. […] It is sometimes necessary to evaluate several levels of the test material between about 1 and about 100 ppm to determine the BI.
At least two perfumers/expert graders are used to assign the BI to the test sample. […] The test sample swatch is assigned a BI at or between numbers on the BI in table.

[1] = Conc 10 ppm test material on isovaleric acid malodorous swatch
[2] = Conc 50 ppm test material on isovaleric acid malodorous swatch

SMILES	BI [1]	BI [2]	BI of reference swatch, Ave (2 μL 0.08% solution, all graders (Table 10))
CC1(C)CCc2ccc(CCC=O)cc21	1.5	2.7	–
CC1CCC2(C(C)C)CC(C)OC2C1 (stereo not shown)	2.0	2.2	–
CCC(=O)OC1CC2C3C=CCC3C1C2(C)C (stereo not shown) [8,8-dimethyl-3a,4,5,6,7,7a-hexahydro-1H-4,7-methanoinden-6-yl propionate]	1.5	2.2	–
CC(C)CC(=O)O [isovaleric acid, reference compound]	–	–	1.0
